Activity calls are given as the source filed them. No cut-off for these calls is given here.
Tested on: DN3.2.D3
Assay: Stimulation of IL2 release in mouse DN3.2.D3 cells by ELISA
Format: functional, cell-based

| Compound | Activity |
| --- | --- |
| CCCCCCCCCCCCCC[C@@H](O)[C@@H](O)[C@H](CO[C@H]1O[C@H](CNC(C)=O)[C@H](O)[C@H](O)[C@H]1O)NC(=O)CCCCCCC | Active |
| CCCCCCCCCCCCCC[C@@H](O)[C@@H](O)[C@H](CO[C@H]1O[C@H](CO)[C@H](O)[C@H](O)[C@H]1O)NC(=O)CCCCCCC | Active |
| CCCCCCCCCCCCCC[C@@H](O)[C@@H](O)[C@H](CO[C@H]1O[C@H](CNC(C)=O)[C@H](O)[C@H](O)[C@H]1O[C@H]1O[C@H](CO)[C@H](O)[C@H](O)[C@H]1O)NC(=O)CCCCCCC | Active |
